According to patent US20140162879A1, “SYNERGISTIC WEED CONTROL FROM APPLICATIONS OF AMINOCYCLOPYRACHLOR AND 2,4 DICHLOROPHENOXYACETIC ACID (2,4-D)” (Dow AgroSciences LLC, priority 2012, published 2014):
Structures can show the parent of a compound that is named as a salt.

Assays:
[1] = test system: Melochia parviflora (MEOPA); assay: Field trial, post-emergence foliar application, weed control rating; format: in vivo; details: 58-62 days
Procedure: (§1) As described in the Herbicide Handbook of the Weed Science Society of America, Ninth Edition, 2007, p. […] In some embodiments, the damage or injury to the undesired vegetation caused by the compositions and methods disclosed herein is evaluated using a scale from 0% to 100%, when compared with the untreated control vegetation, wherein 0% indicates no damage to the undesired vegetation and 100% indicates complete destruction of the undesired vegetation. […] 22 (1967)
(§2) Field trials were conducted with applications made to established grassland with naturally occurring weed populations. The target plants were treated with postemergence foliar applications when they were at the beginning of flowering stage and 50 centimeters (cm) (19.7 inches (in)) tall for Senna obtusifolia plants and at the flowering stage and 70-90 cm (27.6-35.4 in) for Melochia parviflora plants. All treatments were applied using a randomized complete block trial design, with 4 replications per treatment.
(§3) Treatments consisted of aminocyclopyrachlor in acid form and the dimethylamine salt of 2,4-D, each in water and applied alone or in combination. Spray solutions were prepared using an appropriate amount of dilution to form a 2.4 liter (L) aqueous spray solution with active ingredients in single and two way combinations. Formulated compounds were applied to the plant material with a backpack sprayer equipped with 8003 nozzles calibrated to deliver 42.8 gallons per acre (gal/acre) (400 liters per hectare (L/ha)) at a spray height of 18-20 inches (45-51 centimeters (cm)) above average plant canopy.
(§4) The treated plants were Senna obtusifolia (CASOB, java bean), or Melochia parviflora (MEOPA). The treated plots and control plots were rated blind at various intervals after application. Ratings were based on a scale of 0-100%, as discussed above, wherein 0% indicates no damage to the undesired vegetation and 100% indicates complete destruction of the undesired vegetation
(§5) Colby's equation was used to determine the herbicidal effects expected from the mixtures, as described above. The results were measured at 42 days or 58-62 days after the first application of the compositions. […] The herbicide tank mix combinations tested, application rates and ratios employed, plant species tested, and results are given below.

[2] = test system: Senna obtusifolia (CASOB, java bean); assay: as above; format: in vivo
Procedure: as §1, §2, §3, §4, §5

## Nc1nc(C2CC2)nc(C(=O)O)c1Cl [Aminocyclopyrachlor, 6-amino-5-chloro-2-cyclopropylpyrimidine-4-carboxylic acid]
[1]; aminocyclopyrachlor alone 35 g ae/ha
  Mean % weed control: 6.8%
[1]; aminocyclopyrachlor alone 70 g ae/ha
  Mean % weed control: 10.0%
[1]; aminocyclopyrachlor alone 140 g ae/ha
  Mean % weed control: 52.1%
[1]; aminocyclopyrachlor alone 210 g ae/ha
  Mean % weed control: 81.8%
[2]; aminocyclopyrachlor alone 35 g ae/ha, 42 days after application
  Mean % weed control: 72.0%

## O=C(O)COc1ccc(Cl)cc1Cl [Dimethylamine salt of 2,4-D, 2,4-dichlorophenoxyacetic acid]
[1]; dimethylamine salt of 2,4-D alone 1120 g ae/ha
  Mean % weed control: 24.4%
[2]; dimethylamine salt of 2,4-D alone 1120 g ae/ha, 42 days
  Mean % weed control: 64.3%
